# Measured values: the supplement of paper PMC11451515
# System: P12-Ichikawa
# Experiment: cell viability relative to DMSO control; higher = less cytotoxic
# Conditions: 48 h
# How it was run: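 Library compounds in DMSO were pin-dosed in an 11-point threefold series (47 μM to 0.79 nM) onto leukemia cells in 1536-well plates (5 μl). Plates held 500 cells/well of NOMO1 or SEM or 1000 cells/well of P12-Ichikawa, each adapted for at least four passages in each medium. Luminescence was read with CellTiter-Glo One after 48 h at 37°C. Viability means the per-plate percentage relative to DMSO wells, using cell-free wells as background.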
# [1] = HPLM + 10% dialyzed FBS, 0.000781 µM
# [2] = HPLM + 10% dialyzed FBS, 0.00234 µM
# [3] = HPLM + 10% dialyzed FBS, 0.00702 µM
# [4] = HPLM + 10% dialyzed FBS, 0.0211 µM
# [5] = HPLM + 10% dialyzed FBS, 0.0632 µM
# [6] = HPLM + 10% dialyzed FBS, 0.19 µM
# [7] = HPLM + 10% dialyzed FBS, 0.569 µM
# [8] = HPLM + 10% dialyzed FBS, 1.71 µM
# [9] = HPLM + 10% dialyzed FBS, 5.12 µM
# [10] = HPLM + 10% dialyzed FBS, 15.4 µM
# [11] = HPLM + 10% dialyzed FBS, 46.1 µM
# [12] = RPMI 5 mM glucose + 10% FBS, 0.000781 µM
# [13] = RPMI 5 mM glucose + 10% FBS, 0.00234 µM
# [14] = RPMI 5 mM glucose + 10% FBS, 0.00702 µM
# [15] = RPMI 5 mM glucose + 10% FBS, 0.0211 µM
# [16] = RPMI 5 mM glucose + 10% FBS, 0.0632 µM
# [17] = RPMI 5 mM glucose + 10% FBS, 0.19 µM
# [18] = RPMI 5 mM glucose + 10% FBS, 0.569 µM
# [19] = RPMI 5 mM glucose + 10% FBS, 1.71 µM
# [20] = RPMI 5 mM glucose + 10% FBS, 5.12 µM
# [21] = RPMI 5 mM glucose + 10% FBS, 15.4 µM
# [22] = RPMI 5 mM glucose + 10% FBS, 46.1 µM
# [23] = RPMI 5 mM glucose + 10% dialyzed FBS, 0.000781 µM
# [24] = RPMI 5 mM glucose + 10% dialyzed FBS, 0.00234 µM
# [25] = RPMI 5 mM glucose + 10% dialyzed FBS, 0.00702 µM
# [26] = RPMI 5 mM glucose + 10% dialyzed FBS, 0.0211 µM
# [27] = RPMI 5 mM glucose + 10% dialyzed FBS, 0.0632 µM
# [28] = RPMI 5 mM glucose + 10% dialyzed FBS, 0.19 µM
# [29] = RPMI 5 mM glucose + 10% dialyzed FBS, 0.569 µM
# [30] = RPMI 5 mM glucose + 10% dialyzed FBS, 1.71 µM
# [31] = RPMI 5 mM glucose + 10% dialyzed FBS, 5.12 µM
# [32] = RPMI 5 mM glucose + 10% dialyzed FBS, 15.4 µM
# [33] = RPMI 5 mM glucose + 10% dialyzed FBS, 46.1 µM
SMILES,cell viability [1],cell viability [2],cell viability [3],cell viability [4],cell viability [5],cell viability [6],cell viability [7],cell viability [8],cell viability [9],cell viability [10],cell viability [11],cell viability [12],cell viability [13],cell viability [14],cell viability [15],cell viability [16],cell viability [17],cell viability [18],cell viability [19],cell viability [20],cell viability [21],cell viability [22],cell viability [23],cell viability [24],cell viability [25],cell viability [26],cell viability [27],cell viability [28],cell viability [29],cell viability [30],cell viability [31],cell viability [32],cell viability [33]
Clc1ccc(C2(c3ccc(-c4cn[nH]c4)cc3)CCNCC2)cc1,91.3%,94.4%,101%,96.8%,101%,98%,92.3%,89.3%,73.2%,57.5%,59.9%,86.9%,94.2%,85.9%,91%,89%,83.1%,78.8%,75.4%,65.9%,43.1%,44.1%,91%,92.2%,90.7%,87.5%,95%,93.5%,91.8%,78.7%,68.5%,49.7%,49.7%
NC1CCC(N[C@@H]2C[C@H]2c2ccccc2)CC1 (stereo partly drawn),87.9%,92.4%,94.6%,94.5%,102%,102%,105%,99.5%,106%,94.7%,98.5%,92%,94.6%,106%,102%,102%,100%,95%,76.6%,100%,102%,91.2%,92.2%,98.1%,105%,99%,96.5%,109%,103%,97.8%,98.2%,88.9%,84%
CCC[C@@H]1C[C@@H](C(=O)N[C@@H]([C@H]2O[C@H](SC)[C@H](O)[C@@H](O)[C@H]2O)[C@@H](C)O)N(C)C1.Cl,119%,113%,122%,111%,122%,125%,111%,98.8%,97.8%,106%,100%,119%,114%,106%,112%,119%,123%,89.9%,83%,96%,102%,101%,122%,117%,128%,140%,145%,108%,66.4%,70%,112%,95.9%,94.4%
O=C(NC1CCNCC1)c1n[nH]cc1NC(=O)c1c(Cl)cccc1Cl,106%,111%,117%,111%,115%,111%,112%,54.1%,11.6%,12.2%,9.17%,114%,115%,112%,109%,113%,121%,111%,50.9%,12.9%,12.1%,7.33%,114%,112%,109%,115%,116%,112%,103%,79.1%,13.7%,13.8%,10.1%
CC/1=C/N([C@@H]2C[C@@H](O)[C@H](CO)O2)C(=O)NC1=O,93.7%,89.4%,96.2%,85.5%,78.7%,83.4%,91.7%,86.1%,73.7%,74.2%,8.14%,75.2%,86.7%,83.5%,85.8%,65.9%,80.7%,90.2%,76%,62.3%,69.5%,6.95%,76.3%,84.6%,79.8%,75.9%,61.6%,73.3%,81.8%,81%,61%,64.3%,12.2%
CCNC(=O)C[C@@H]1\N=C(C2=CC=C(Cl)C=C2)/C3=C(C=CC(=C3)OC)[N]4C(=NN=C14)C,106%,115%,106%,114%,105%,103%,92.1%,83.5%,78.2%,50.1%,17%,114%,111%,127%,106%,105%,111%,101%,84.7%,76%,56.2%,37.8%,115%,118%,115%,117%,106%,106%,95.7%,84%,75.8%,60.4%,35.9%
COc1cc2nccc(Oc3ccc(NC(=O)Nc4cc(C)on4)c(Cl)c3)c2cc1OC,121%,131%,115%,122%,122%,115%,126%,119%,107%,113%,40.5%,124%,121%,114%,129%,118%,124%,120%,122%,110%,106%,36.7%,,,,,,,,,,,
CCOC(=O)C/1=C(C)/NC(=S)NC1C2=CC=CC(=C2)O (stereo not drawn),110%,115%,115%,118%,125%,59%,9.07%,6.6%,5.26%,6.98%,5.13%,106%,110%,128%,128%,112%,42.6%,11%,8.73%,7.18%,8.04%,9.16%,102%,102%,113%,113%,120%,93.4%,21%,14.2%,7.5%,9.98%,11.8%
